Assay results: US10925969B2, “Anti-BCMA polypeptides and proteins” (priority 2015, dated 2021)

Legend:
H929 cell line = assay: Cell killing by trypan blue staining, cells seeded at 10^6 per ml; assay type: cell-based; details: H929, agent added D-0 (LMB38 100 ng/ml), washed after D-3
Experimental: (§1) The BCMA-positive H929, U266, and RPMI cell lines were seeded at 10^6 per ml in 3 ml volume. LMB38 (BM24-Fab-LRggs) was added at 100 ng/ml at Day 0 (D-0). Cells (10 μl) were taken on different days and counted after trypan blue staining. After D-3, cells were washed and plated with media containing no toxin. For the 6 hour group, cells were washed after 6 h and plated in regular media containing no toxin. Cyclohexamide (Chxm) and 205 were used as positive controls; SS1-Fab-immunotoxin targeting mesothelin was used as a negative control (Ctrl).

RPMI cell line = assay: as above; assay type: cell-based; details: agent added D-0 (LMB38 100 ng/ml)
Experimental: as §1

U266 cell line = assay: as above; assay type: cell-based; details: U266, agent added D-0 (LMB38 100 ng/ml), washed after D-3
Experimental: as §1

BCMA-rFc protein = target: T1, BCMA-rFc protein (Homo sapiens, UniProt Q02223); assay: Binding kinetics of MAbs by bio-layer interferometry (BLITZ); details: for ka / kd: BCMA-rFc immobilized sensor
T1 construct: the extracellular domain of human BCMA (residues 1-54) fused to the Fc region; made in house
T1 sequence (Q02223 1-54): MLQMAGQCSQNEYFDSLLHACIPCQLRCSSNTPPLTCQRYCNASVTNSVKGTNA
Experimental: The binding kinetics of MAbs to BCMA were measured by bio-layer interferometry using a BLITZ (ForteBio, Menlo Park, Calif.) instrument. According to the manufacturer's instructions, BCMA-rFc were immobilized on amine-reactive second-generation biosensors by amine coupling following the activation of the sensor surface with N-hydroxysuccinimide (NHS) and N-ethyl-N-(3-dimethylaminopropyl) carbodiimide hydrochloride (EDC). Serial dilutions of MAbs were run across sensor surface at five different concentration in PBS (pH 7.4). The sensorgram data set was globally fit using the built-in BLITZ software to determine association rate constant (Ka), dissociation rate constant (Kd), and affinity constant (KD).
The binding kinetics of these two anti-BCMA mAbs against BCMA-rFc protein were measured by bio-layer interferometry. Serial dilutions of anti-BCMA MAbs (20, 10, 5, 2.5, 1.25 μg/ml) were applied to the BCMA-rFc immobilized sensor and detected. Real-time biomolecular interaction analyses were performed with BLITZ software. […] The dissociation constants (KD) of both mAbs were less than 1×10^−12 (exceeded the detection limits).

[1] = test system: TNFRs (BCMA, TACI or BAFFR); assay: Cross-reactivity with TNFR superfamily members by FACS (transfected 293T cells) and ELISA (TNFR-rFc); assay type: binding, human; details: mAb at 4 μg/ml
Experimental: For transfection experiments, 293T cells were seeded in 100 mm dishes (BD Biosciences, Bedford, Mass.) and grown at the subconfluent densities. pcDNA6/BCMA, pcDNA/TACI, or pcDNA6/BAFFR (6 μs) were transfected per dish by LIPOFECTAMINE LX and PLUS reagent according to the manufacturer's instructions. After 24 h, the transiently transfected cells were harvested and used for FACS screening. Cells (1-5×10^5) were incubated with serial dilution of hybridoma supernatants in FACS buffer (PBS containing 5% FBS and 0.1% sodium azide) for 1 h on ice. After washing twice with FACS buffer, the cells were incubated with 1:200 dilution of R-Phycoerythrin (PE)-labelled goat anti-mouse IgG F(ab′)2 (Jackson Immuno Research Laboratories, West Grove, Pa.) for 30 min. After washing twice, the cells were resuspended in 180 μl FACS buffer containing 10 nM TO-PRO-3 stain (Invitrogen), and the fluorescence associated with the live cells was measured using a BD ACCURI C6 flow cytometer (BD Biosciences). Positive hybridoma clones were transferred to 24-well pates. To exclude the false positive in the first screening, 24-well culture supernatants were re-assayed 2 days after transfer. […] The isotype of established monoclonal antibodies (MAb) was determined by a mouse MAb isotyping reagents (Sigma-Aldrich). Immunoglobulin concentrations in the culture supernatants were determined by a sandwich ELISA. […]

[2] = target: T2, BCMA-expressing 293T cells (Homo sapiens, UniProt Q02223); assay: FACS screening of binding to cell-surface BCMA
T2 construct: One vector encoded the full-length human BCMA; expressed in transfected cells; host or cells: 293T cells transiently transfected with pcDNA6/BCMA
T2 sequence (Q02223 1-184): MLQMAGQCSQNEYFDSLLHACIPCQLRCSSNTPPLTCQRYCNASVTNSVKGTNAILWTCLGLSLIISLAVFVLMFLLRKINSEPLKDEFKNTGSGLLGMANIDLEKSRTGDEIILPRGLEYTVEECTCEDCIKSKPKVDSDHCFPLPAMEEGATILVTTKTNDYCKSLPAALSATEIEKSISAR
Experimental: For transfection experiments, 293T cells were seeded in 100 mm dishes (BD Biosciences, Bedford, Mass.) and grown at the subconfluent densities. pcDNA6/BCMA, pcDNA/TACI, or pcDNA6/BAFFR (6 μs) were transfected per dish by LIPOFECTAMINE LX and PLUS reagent according to the manufacturer's instructions. After 24 h, the transiently transfected cells were harvested and used for FACS screening. Cells (1-5×10^5) were incubated with serial dilution of hybridoma supernatants in FACS buffer (PBS containing 5% FBS and 0.1% sodium azide) for 1 h on ice. […] After washing twice, the cells were resuspended in 180 μl FACS buffer containing 10 nM TO-PRO-3 stain (Invitrogen), and the fluorescence associated with the live cells was measured using a BD ACCURI C6 flow cytometer (BD Biosciences). […] The isotype of established monoclonal antibodies (MAb) was determined by a mouse MAb isotyping reagents (Sigma-Aldrich). Immunoglobulin concentrations in the culture supernatants were determined by a sandwich ELISA.
Mice were intraperitoneally immunized with BCMA-rFc fusion protein in adjuvant for the first immunization, and subsequently immunized 5 times with BCMA-rFc without adjuvant. High antibody titers (1:10,000) against the BCMA-expressing 293T cells were detected in the sera from mice immunized with BCMA-rFc. […]

[3] = target: T3, BCMA molecules on the surface of H929 cells (Homo sapiens, UniProt Q02223); assay: Quantification of BCMA molecules on cell surface by flow cytometry with labeled LMB70; assay type: binding; details: 1h on ice
T3 construct: endogenous in cells; host or cells: H929 cells
T3 sequence (Q02223 1-184): T2 sequence (Q02223 1-184)
Experimental: To quantify the BCMA molecules on the surface of H929 cells, H929 cells were incubated with various concentrations of labeled LMB70 for 1h on ice in FLOW buffer. The cells were washed and analyzed by flow cytometry, together with AF647 quantification beads.

H929 cells = assay: WST-8 assay of AF647-labeled and unlabeled LMB70; assay type: cell-based; details: for IC50 (WST-8): in ng/mL
Experimental: (§2) LMB70 was labeled with AF647 for measurement of uptake in vivo. LMB70 was labeled twice with AF647 using an AF647 labeling kit (Life Technologies). Labeling efficacy and activity were measured by WST-8 assay and affinity measurement.

BCMA = target: T4, BCMA (Homo sapiens, UniProt Q02223); assay: Affinity measurement of AF647-labeled and unlabeled LMB70; assay type: binding; details: after the first labeling
T4 sequence (Q02223 1-184): T2 sequence (Q02223 1-184)
Experimental: as §2

C[C@@H]1C[C@@H]([C@H](O)CC2CC(=O)NC(=O)C2)C(=O)[C@@H](C)C1 [Chxm, Cyclohexamide]
Percent dead (H929 cell line; D-0): 9%
Percent dead (H929 cell line; D-1): 70%
Percent dead (H929 cell line; D-2): 92%
Percent dead (H929 cell line; D-3): 100%
Percent dead (H929 cell line; D-6): 100%
Percent dead (RPMI cell line; washed after D-3, D-0): 15%
Percent dead (RPMI cell line; washed after D-3, D-1): 75%
Percent dead (RPMI cell line; washed after D-3, D-2): 100%
Percent dead (RPMI cell line; washed after D-3, D-3): 100%
Percent dead (RPMI cell line; washed after D-3, D-6): 100%
Percent dead (U266 cell line; D-0): 7%
Percent dead (U266 cell line; D-1): 25%
Percent dead (U266 cell line; D-2): 50%
Percent dead (U266 cell line; D-3): 80%
Percent dead (U266 cell line; D-6): 100%

B1: BM24: anti-BCMA mAb, IgG1 isotype; VH SEQ ID NO: 13, VL SEQ ID NO: 14 (antibody, V domains shown)
VH: MEVQLQQSGPELVKPGASVKMSCKASGNTLTNYVIHWMKQMPGQGLDWIGYILPYNDLTKYNEKFTGKATLTSDKSSSSAYMELNSLTSEDSAVYYCTRWDWDGFFDPWGQGTTLTVSSAS
VL: MDIVMTQSPLSLPVSLGDQASISCRSTQSLVHSNGNTHLHWYLQRPGQSPKLLIYSVSNRFSEVPDRFSASGSGTDFTLKISRVEAEDLGVYFCSQTSHIPYTFGGGTKLEIKR
modifications: IgG1
ka (BCMA-rFc protein): 297000 M⁻¹ s⁻¹
kd (BCMA-rFc protein): <1e-07 s⁻¹
cross-reactivity with other TNFR superfamily members [1]: specific to BCMA
binding to BCMA antigen on the cell surface [2]: high affinity and specificity

B2: BM306: anti-BCMA mAb, IgG1 isotype; VH SEQ ID NO: 15, VL SEQ ID NO: 16 (antibody, V domains shown)
VH: MEVQLQQSGPELVKPGASVKISCKTSGYTFTEYTINWVKQSHGKSLEWIGDIYPDNYNIRYNQKFKGKATLTVDKSSSTAYMELRSLSSEDSAIYYCANHDFFVFWGQGTLVTVSAAK
VL: MDIQMTQATSSLSASLGDRVTINCRTSQDISNHLNWYQQKPDGTVKLLIYYTSRLQSGVPSRFSGSGSGTDYSLTISNLEQEDIGTYFCHQGNTLPPTFGGGTKLEIKR
modifications: IgG1
association rate constant (Ka) compared to BM24 (BCMA-rFc protein): high
ka (BCMA-rFc protein): 415000 M⁻¹ s⁻¹
kd (BCMA-rFc protein): <1e-07 s⁻¹
cross-reactivity with other TNFR superfamily members [1]: specific to BCMA
binding to BCMA antigen on the cell surface [2]: high affinity and specificity

B3: labeled LMB70: LMB70 labeled with AF647 using an AF647 labeling kit (conjugate)
VH: EVQLQQSGPELVKPGASVKISCKTSGYTFTEYTINWVKQSHGKSLEWIGDIYPDNYNIRYNQKFKGKATLTVDKSSSTAYMELRSLSSEDSAIYYCANHDFFVFWGQGTLVTVSA
VL: DIQMTQATSSLSASLGDRVTINCRTSQDISNHLNWYQQKPDGTVKLLIYYTSRLQSGVPSRFSGSGSGTDYSLTISNLEQEDIGTYFCHQGNTLPPTFGGGTKLEIK
modifications: left off: another chain or arm of the molecule; a dimerising Fc or GST; small tags and cut ends
notes: LMB70 labeled with AF647 using an AF647 labeling kit
Bmax ([3]; first labeling): 150,000 molecules per cell
Bmax ([3]; second labeling): 230,000 molecules per cell
IC50 (WST-8) (H929 cells; after the first labeling): 6.082
IC50 (WST-8) (H929 cells; after the second labeling): 10.69
fold less active than the unlabeled toxins (H929 cells; labeled versus unlabeled): about 4 fold
Bmax (affinity measurement) (BCMA): 1131
